Tests used:
CDK2 (human) [1] = target: CDK2 (human) (UniProt P24941); assay: Enzyme Assay
CDK2 (human) [2] = target: CDK2 (human) (UniProt P24941); assay: Cell-Based Assay

SMILES | IC50 (CDK2 (human) [1]) [µM] | IC50 (CDK2 (human) [2]; rko) [µM] | IC50 (CDK2 (human) [2]; mda-mb-435) [µM]
O=C1Nc2ccc(F)c3c(N4CCNCC4)cc(-c4ccc[nH]4)c1c23 | ≤ 10 | – | –
NCCSc1cc(-c2ccc[nH]2)c2c3c(ccc(F)c13)NC2=O | ≤ 10 | – | –
NCCOc1cc(-c2ccc[nH]2)c2c3c(ccc(F)c13)NC2=O | ≤ 10 | – | –
COc1cc(-c2ccc[nH]2)c2c3c(ccc(F)c13)NC2=O | ≤ 10 | – | –
CCN(CC)CCNc1cc(-c2ccc[nH]2)c2c3c(ccc(F)c13)NC2=O | ≤ 10 | – | –
O=C1Nc2ccc(F)c3ccc(-c4ccc[nH]4)c1c23 | ≤ 10 | – | –
O=C1Nc2ccc(F)c3c(OCCCO)cc(-c4ccc[nH]4)c1c23 | ≤ 10 | – | –
O=C1Nc2ccc(F)c3c([S+]([O-])CCO)cc(-c4ccc[nH]4)c1c23 (stereo not given) | – | ≤ 10 | –
O=C1Nc2ccc(F)c3c(N4CCCC(O)C4)cc(-c4ccc[nH]4)c1c23 (stereo not given) | ≤ 10 | ≤ 10 | ≤ 10
Cc1cc(-c2ccc[nH]2)c2c3c(ccc(F)c13)NC2=O | ≤ 10 | – | –
CCc1cc(-c2ccc[nH]2)c2c3c(ccc(F)c13)NC2=O | ≤ 10 | – | –
O=C1Nc2ccc(F)c3c(N4CCNC4=O)cc(-c4ccc[nH]4)c1c23 | ≤ 10 | – | –
NCC[S+]([O-])c1cc(-c2ccc[nH]2)c2c3c(ccc(F)c13)NC2=O (stereo not given) | ≤ 10 | ≤ 10 | ≤ 10
CCOc1cc(-c2ccc[nH]2)c2c3c(ccc(F)c13)NC2=O | ≤ 10 | – | –
O=C1Nc2ccc(F)c3c(N4CC[C@@H](O)C4)cc(-c4ccc[nH]4)c1c23 | ≤ 10 | – | –
O=C1Nc2ccc(F)c3c(N4CCOCC4)cc(-c4ccc[nH]4)c1c23 | ≤ 10 | – | –
CC(=O)NCCNc1cc(-c2ccc[nH]2)c2c3c(ccc(F)c13)NC2=O | ≤ 10 | – | –
O=C1Nc2ccc(F)c3c(OCCO)cc(-c4ccc[nH]4)c1c23 | ≤ 10 | – | –
NCCS(=O)(=O)c1cc(-c2ccc[nH]2)c2c3c(ccc(F)c13)NC2=O | ≤ 10 | – | –
O=C1Nc2ccc(F)c3c(S(=O)(=O)CCO)cc(-c4ccc[nH]4)c1c23 | ≤ 10 | – | –
NCCCNc1cc(-c2ccc[nH]2)c2c3c(ccc(F)c13)NC2=O | ≤ 10 | – | –
CCC(C)c1cc(-c2ccc[nH]2)c2c3c(ccc(F)c13)NC2=O (stereo not given) | ≤ 10 | – | –
Cc1c[nH]c(-c2cc(SCCN)c3c(F)ccc4c3c2C(=O)N4)c1C | ≤ 10 | – | –
O=C1Nc2ccc(F)c3c(NCCO)cc(-c4ccc[nH]4)c1c23 | ≤ 10 | – | –
O=C1Nc2ccc(F)c3c(SCCO)cc(-c4ccc[nH]4)c1c23 | ≤ 10 | – | –
O=C1Nc2ccc(F)c3c(N4CCCC(CO)C4)cc(-c4ccc[nH]4)c1c23 (stereo not given) | ≤ 10 | ≤ 10 | ≤ 10
O=C1Nc2ccc(F)c3c2C1=C(c1ccc[nH]1)CC3 | ≤ 10 | – | –
CC(C)(N)CNc1cc(-c2ccc[nH]2)c2c3c(ccc(F)c13)NC2=O | ≤ 10 | – | –
O=C1Nc2ccc(F)c3c(N4CCC(O)CC4)cc(-c4ccc[nH]4)c1c23 | ≤ 10 | – | –
